Results: article PMC10493395, “Optimization of a small molecule inhibitor of secondary nucleation in α-synuclein aggregation” (Frontiers in Molecular Biosciences, 2023)

Biological target: T1, α-synuclein (Homo sapiens, UniProt P37840)
T1 construct: gene SNCA; preformed fibrils of recombinant wild-type α-synuclein
Test: fibril ultracentrifugation depletion with LC-MS of unbound compound in the supernatant, dose-response fit (second estimate […] by varying fibril concentration)
Format: binding

Kd: 6 ± 1 µM
Structure (SMILES): O=C1NN(c2ccccc2)C(=O)C1=Cc1coc2ccc(Cl)cc2c1=O [69.2, compound 69.2]
